# Data: PubChem BioAssay AID296 (DTP/NCI, 2004)
# Where “and” joins values, the source holds several entries; their conditions need not be identical. Equal entries are not always repeated. Results filed as inconclusive are left out.
# System: MX-1 breast xenograft, nude mice, tumor weight T/C
# Test: NCI In Vivo Anticancer Drug Screen. Data for tumor model Human Mammary Carcinoma MX-1 Xenograft (intrarenal inoculation) in NU/NU Swiss (nude) mice
# Settings: endpoint: mean tumor weight change, higher = larger tumour
# Method in brief: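 Antitumour effect measured in vivo against vehicle controls, expressed as T/C.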
# [1] = dose: 25.0 mg/kg/injection, schedule: Q01DX010 (sc), vehicle: Klucel (hydroxypropylcellulose) (HPC)
# [2] = dose: 75.0 mg/kg/injection, schedule: Q04DX003 (sc), vehicle: saline with Tween-80
# [3] = dose: 150.0 mg/kg/injection, schedule: Q04DX003 (sc), vehicle: saline with Tween-80
# [4] = dose: 300.0 mg/kg/injection, schedule: Q04DX003 (sc), vehicle: saline with Tween-80
# [5] = dose: 150.0 mg/kg/injection, schedule: Q04DX003 (sc), vehicle: saline
# [6] = dose: 300.0 mg/kg/injection, schedule: Q04DX003 (sc), vehicle: saline
# [7] = dose: 600.0 mg/kg/injection, schedule: Q04DX003 (sc), vehicle: saline
# [8] = dose: 1200.0 mg/kg/injection, schedule: Q04DX003 (sc), vehicle: saline
# [9] = dose: 50.0 mg/kg/injection, schedule: Q04DX003 (sc), vehicle: saline
# [10] = dose: 100.0 mg/kg/injection, schedule: Q04DX003 (sc), vehicle: saline
# [11] = dose: 300.0 mg/kg/injection, schedule: Q04DX003 (sc), vehicle: Klucel (hydroxypropylcellulose) (HPC)
# [12] = dose: 600.0 mg/kg/injection, schedule: Q04DX003 (sc), vehicle: Klucel (hydroxypropylcellulose) (HPC)
# [13] = dose: 1200.0 mg/kg/injection, schedule: Q04DX003 (sc), vehicle: Klucel (hydroxypropylcellulose) (HPC)
# [14] = dose: 2400.0 mg/kg/injection, schedule: Q04DX003 (sc), vehicle: Klucel (hydroxypropylcellulose) (HPC)
# [15] = dose: 150.0 mg/kg/injection, schedule: Q04DX003 (sc), vehicle: Klucel (hydroxypropylcellulose) (HPC)
# [16] = dose: 25.0 mg/kg/injection, schedule: Q04DX003 (sc), vehicle: suspension in saline
smiles,measurement,setting,value
O=NN(CCF)C(=O)NC1CCCCC1,T/C,"dose: 3.12 mg/kg/injection, schedule: Q04DX003 (sc), vehicle: Klucel (hydroxypropylcellulose) (HPC)",119 % of control
same,T/C,"dose: 6.25 mg/kg/injection, schedule: Q04DX003 (sc), vehicle: Klucel (hydroxypropylcellulose) (HPC)",88 % of control
same,T/C,"dose: 12.5 mg/kg/injection, schedule: Q04DX003 (sc), vehicle: Klucel (hydroxypropylcellulose) (HPC)",91 % of control
same,T/C,"dose: 25.0 mg/kg/injection, schedule: Q04DX003 (sc), vehicle: Klucel (hydroxypropylcellulose) (HPC)",92 % of control
CCOC(=O)Nc1cc2c(c(N)n1)N=C(CN(C)c1ccccc1)CN2,T/C,[1],82 % of control
same,T/C,"dose: 50.0 mg/kg/injection, schedule: Q01DX010 (sc), vehicle: Klucel (hydroxypropylcellulose) (HPC)",70 % of control
O=C(O)CCCc1ccc(N(CCCl)CCCl)cc1,T/C,"dose: 4.0 mg/kg/injection, schedule: Q01DX010 (sc), vehicle: saline with Tween-80",-6 % of control
same,T/C,"dose: 16.0 mg/kg/injection, schedule: Q01DX010 (sc), vehicle: saline with Tween-80",-65 % of control
CCN(CC)CCC(=O)c1ccccc1,T/C,[2],94 % of control
same,T/C,[3],100 % of control
same,T/C,[4],115 % of control
O=c1ncccn1[C@@H]1O[C@H](CO)[C@H](O)C1O (some centres not stated),T/C,[5],114 % of control
same,T/C,[6],156 % of control
same,T/C,[7],160 % of control
same,T/C,[8],108 % of control
C[Si](C)(C)O/C=C1\CCCCC1=O,T/C,"dose: 200.0 mg/kg/injection, schedule: Q04DX003 (sc), vehicle: saline with Tween-80",94 % of control
same,T/C,"dose: 400.0 mg/kg/injection, schedule: Q04DX003 (sc), vehicle: saline with Tween-80",89 % of control
O=C1NC(c2ccccc2)N=C2Oc3ccccc3C=C12 (configuration not stated),T/C,"dose: 50.0 mg/kg/injection, schedule: Q01DX008 (sc), vehicle: saline with Tween-80",57 % of control
same,T/C,"dose: 100.0 mg/kg/injection, schedule: Q01DX008 (sc), vehicle: saline with Tween-80",71 % of control
same,T/C,"dose: 200.0 mg/kg/injection, schedule: Q01DX008 (sc), vehicle: saline with Tween-80",56 % of control
same,T/C,"dose: 400.0 mg/kg/injection, schedule: Q01DX008 (sc), vehicle: saline with Tween-80",80 % of control
FC(F)(F)c1nc2nc(Cl)c(Cl)nc2[nH]1,T/C,[2],92 % of control
same,T/C,[3],97 % of control
same,T/C,[4],90 % of control
NC(=O)c1ccc[n+](Cc2c(Cl)cccc2Cl)c1,T/C,[9],92 % of control
same,T/C,[10],100 % of control
c1cc(-c2cc3ccc(C4=NCCN4)cc3[nH]2)ccc1C1=NCCN1,T/C,"dose: 25.0 mg/kg/injection, schedule: Q04DX003 (sc), vehicle: saline",66 % of control
same,T/C,[9],73 % of control
same,T/C,[10],50 % of control
CN(C)c1ccc2c(NCCCCCCNc3ccnc4cc(N(C)C)ccc34)ccnc2c1,T/C,"dose: 37.5 mg/kg/injection, schedule: Q04DX003 (sc), vehicle: distilled water + Tween-80 + alcohol",72 % of control
same,T/C,"dose: 75.0 mg/kg/injection, schedule: Q04DX003 (sc), vehicle: distilled water + Tween-80 + alcohol",63 % of control and 64 % of control
same,T/C,"dose: 600.0 mg/kg/injection, schedule: Q04DX003 (sc), vehicle: distilled water + Tween-80 + alcohol",34 % of control and 54 % of control
CCC(=O)O[C@H]1CC[C@H]2[C@@H]3CCC4=CC(=O)CC[C@]4(C)[C@H]3CC[C@]12C,T/C,[11],76 % of control
same,T/C,[12],88 % of control
same,T/C,[13],74 % of control
same,T/C,[14],115 % of control
CC(=O)O[C@@H]1[C@@H](O)C2=C3[C@]4(C)[C@@H]1C(C)(C)C(=O)C[C@@H]4[C@]3(O)[C@H](OC(C)=O)[C@@]1(C[C@@H]1C)C2=O,T/C,"dose: 12.5 mg/kg/injection, schedule: Q01DX010 (sc), vehicle: saline with Tween-80",106 % of control
same,T/C,"dose: 25.0 mg/kg/injection, schedule: Q01DX010 (sc), vehicle: saline with Tween-80",114 % of control
same,T/C,"dose: 50.0 mg/kg/injection, schedule: Q01DX010 (sc), vehicle: saline with Tween-80",319 % of control
Nc1ccccc1N,T/C,[1],103 % of control
same,T/C,"dose: 100.0 mg/kg/injection, schedule: Q01DX010 (sc), vehicle: Klucel (hydroxypropylcellulose) (HPC)",80 % of control and 211 % of control
same,T/C,"dose: 200.0 mg/kg/injection, schedule: Q01DX010 (sc), vehicle: Klucel (hydroxypropylcellulose) (HPC)",34 % of control and 47 % of control
Cc1cc(NC(=S)SCc2ccc3c(c2)OCO3)ccc1Cl,T/C,[15],106 % of control
same,T/C,[11],104 % of control
same,T/C,[12],118 % of control
same,T/C,[13],88 % of control
CCN(CC)CC[n+]1ccc2c(C)c3[nH]c4ccc(O)cc4c3c(C)c2c1,T/C,"dose: 12.5 mg/kg/injection, schedule: Q04DX003 (sc), vehicle: suspension in saline",82 % of control
same,T/C,[16],77 % of control
O=C(O)CSc1c(Cl)c(=O)oc2ccc(Cl)cc12,T/C,"dose: 75.0 mg/kg/injection, schedule: Q04DX003 (sc), vehicle: Klucel (hydroxypropylcellulose) (HPC)",87 % of control
same,T/C,[15],61 % of control and 75 % of control
same,T/C,[11],54 % of control and 62 % of control
O=C(C1CO1)C(Cl)(Cl)Cl (configuration not stated),T/C,[5],64 % of control
Cc1c(N)nc(C(CC(N)=O)NCC(N)C(N)=O)nc1C(=O)NC(C(=O)NC(C)C(O)CC(=O)NC(C(=O)NC(OC1OC(C)C(N)C(O)C1O)C(O)c1nc(-c2nc(C(=O)NCCCC(N)CC(=O)NCCCNCCCCN)cs2)cs1)C(C)O)C(OC1OC(CO)C(O)C(O)C1OC1OC(CO)C(O)C(OC(N)=O)C1O)c1cnc[nH]1 (configuration not stated),T/C,"dose: 8.0 mg/kg/injection, schedule: Q04DX003 (sc), vehicle: saline",47 % of control
same,T/C,"dose: 16.0 mg/kg/injection, schedule: Q04DX003 (sc), vehicle: saline",40 % of control
NC(=O)c1ncn2c(=O)n(CCCl)nnc12,T/C,[16],69 % of control
same,T/C,"dose: 50.0 mg/kg/injection, schedule: Q04DX003 (sc), vehicle: suspension in saline",30 % of control
O=c1oc2c(O)c(O)cc3c(=O)oc4c(O)c(O)cc1c4c23,T/C,[15],115 % of control
same,T/C,[11],109 % of control
same,T/C,[12],67 % of control
same,T/C,[13],101 % of control
COc1cc(C)c(C2NC(=O)c3ccccc3N2)cc1C (configuration not stated),T/C,[11],53 % of control
same,T/C,[12],115 % of control
same,T/C,[13],93 % of control
same,T/C,[14],90 % of control
Cc1cc2c(c3oc(C4(C)OC4C4OC4C)cc(=O)c13)C(=O)c1c(O)c(C3CC(C)(N(C)C)C(O)C(C)O3)cc(C3CC(N(C)C)C(O)C(C)O3)c1C2=O (configuration not stated),T/C,"dose: 0.05 mg/kg/injection, schedule: Q04DX003 (sc), vehicle: saline",77 % of control
same,T/C,"dose: 0.1 mg/kg/injection, schedule: Q04DX003 (sc), vehicle: saline",30 % of control
CN(C)CCN1C(=O)c2cccc3cc(N)cc(c23)C1=O,T/C,"dose: 16.0 mg/kg/injection, schedule: Q04DX003 (sc), vehicle: saline with Tween-80",80 % of control
same,T/C,"dose: 32.0 mg/kg/injection, schedule: Q04DX003 (sc), vehicle: saline with Tween-80",78 % of control
CC(=O)OC(C)C1C2=C(C(=O)CC1(C)O)C(=O)c1c(ccc(-c3ccc4c(c3O)C(=O)C3=C(C4=O)C(C(C)OC(C)=O)C(C)(O)CC3=O)c1O)C2=O (configuration not stated),T/C,"dose: 7.5 mg/kg/injection, schedule: Q04DX003 (sc), vehicle: saline with Tween-80",33 % of control
same,T/C,"dose: 30.0 mg/kg/injection, schedule: Q04DX003 (sc), vehicle: saline with Tween-80",98 % of control
same,T/C,"dose: 60.0 mg/kg/injection, schedule: Q04DX003 (sc), vehicle: saline with Tween-80",96 % of control
COC1=CC(=O)N(C(=O)C2CSC(C(CO)NC(=O)c3csc(/C=N/O)n3)=N2)C1 (configuration not stated),T/C,[15],79 % of control
same,T/C,[11],81 % of control
same,T/C,[12],95 % of control
OCCCN1CCCCC1CO (configuration not stated),T/C,[6],85 % of control
same,T/C,[7],84 % of control
same,T/C,[8],98 % of control
